From patent publication US20260209247A1, “Substituted Tricyclic Compounds” (Lupin Limited, priority 2019, published 2026)

Each compound was assayed on pERK after EGF stimulation in DLD1 cells (assay: ERK phosphorylation assay (alphascreen pERK)). Settings: Homo sapiens, DLD-1, 2 h compound, 200 ng/ml hEGF for 5 minutes, read-out: ERK phosphorylation inhibition IC50.
Format: cell-based
Method: Compounds were tested for their ability to inhibit pERK after EGF stimulation in DLD1 cells. Cells were seeded at 0.2 million cells per well in 96 well cell binding tissue culture plate in 100 μL complete media and were allowed to settle overnight (16 to 20 h). On the following day, cells were treated with various concentrations of test compounds for 2 h followed by stimulation with 200 ng/ml hEGF (diluted in PBS) for 5 minutes. Cells were then washed once with PBS and lysed in freshly prepared lysis buffer (provided with alphascreen surefire ERK1/2 p-T202/Y204 assay kit, cat no: TGRESB10K, Perkin Elmer). Lysis was carried out in plate shaker for 10-15 mins. Lysate was transferred to […] white opti-plate (Perkin Elmer) and alphascreen for pERK was carried out as per manufacturer's instructions. Plate was read after 2 h incubation in plate shaker at […] 300 RPM, 25-28° C. The difference between the unstimulated and stimulated Vehicle control is considered as 100% ERK phosphorylation, and % inhibition of compounds is calculated accordingly.

| IC50 [nM] | SMILES |
| --- | --- |
| 201 to 500 | Cc1nc(NC(C)c2cccc(C(O)(CO)C(F)(F)F)c2F)c2cc3c(cc2n1)OC(C)(C)C(=O)N3C (racemic) [Compound 22, 4-(((R&S)-1-(2-Fluoro-3-((R&S)-1,1,1-trifluoro-2,3-dihydroxypropan-2-yl)phenyl)ethyl)amino)-2,6,8,8-tetramethyl-6H-[1,4]oxazino[3,2-g]quinazolin-7(8H)-one] |
| 201 to 500 | CO[C@]1(C)C(=O)N(C)c2cc3c(N[C@H](C)c4cccc(C(F)(F)[C@](C)(O)CO)c4F)nc(C)nc3cc21 (racemic) [Compound 103, (S/R)-4-(((R/S)-1-(3-((R/S)-1,1-difluoro-2,3-dihydroxy-2-methylpropyl)-2-fluorophenyl)ethyl)amino)-8-methoxy-2,6,8-trimethyl-6,8-dihydro-7H-pyrrolo[2,3-g]quinazolin-7-one] |
| 1 to 200 | Cc1nc(N[C@H](C)c2cccc(C(F)(F)[C@@](C)(O)CN(C)C)c2F)c2cc3c(cc2n1)C(C)(C)C(=O)N3C (racemic) [Compound 129b, 4-(((R)-1-(3-((S/R)-3-(dimethylamino)-1,1-difluoro-2-hydroxy-2-methylpropyl)-2-fluorophenyl)ethyl)amino)-2,6,8,8-tetramethyl-6,8-dihydro-7H-pyrrolo[2,3-g]quinazolin-7-one] |
| 1 to 200 | CNC[C@](C)(O)C(F)(F)c1cccc([C@@H](C)Nc2nc(C)nc3cc4c(cc23)N(C)C(=O)C4(C)C)c1F (racemic) [Compound 130b, 4-(((R)-1-(3-((S/R)-1,1-difluoro-2-hydroxy-2-methyl-3-(methylamino)propyl)-2-fluorophenyl)ethyl)amino)-2,6,8,8-tetramethyl-6,8-dihydro-7H-pyrrolo[2,3-g]quinazolin-7-one] |
| 201 to 500 | Cc1nc(N[C@H](C)c2cccc(C3CCCNC3)c2F)c2cc3c(cc2n1)C(C)(C)C(=O)N3C (mixture of isomers) [Compound 133, (R & S)-4-(((R)-1-(2-fluoro-3-((R & S)-piperidin-3-yl)phenyl)ethyl)amino)-2,6,8,8-tetramethyl-6,8-dihydro-7H-pyrrolo[2,3-g]quinazolin-7-one] |
| 1 to 200 | COC1(C)C(=O)N(C)c2cc3nc(C)nc(N[C@H](C)c4cc(N)cc(C(F)(F)F)c4)c3cc21 (mixture of isomers) [Compound 137, 4—(((R)-1-(3-amino-5-(trifluoromethyl)phenyl)ethyl)amino)-6-methoxy-2,6,8-trimethyl-6,8-dihydro-7H-pyrrolo[3,2-g]quinazolin-7-one] |
| 1 to 200 | Cc1nc(NC(C)c2cc(N)cc(C(F)F)c2)c2cc3c(cc2n1)OCC(=O)N3C (single isomer, unassigned) [Compound 5, (R/S)-4-((1-(3-Amino-5-(difluoromethyl)phenyl)ethyl)amino)-2,6-dimethyl-6H-[1,4]oxazino[3,2-g]quinazolin-7(8H)-one] |
| 201 to 500 | Cc1nc(N[C@H](C)c2cccc([C@@](O)(CO)C(F)(F)F)c2F)c2cc3c(cc2n1)OC(C)(C)C(=O)N3C (single isomer, unassigned) [Compound 22b, 4-(((R/S)-1-(2-fluoro-3-((R/S)-1,1,1-trifluoro-2,3-dihydroxypropan-2-yl)phenyl)ethyl)amino)-2,6,8,8-tetramethyl-6H-[1,4]oxazino[3,2-g]quinazolin-7(8H)-one] |
| 1 to 200 | Cc1nc(N[C@H](C)c2cccc(C(F)(F)C(C)(C)O)c2F)c2cc3c(cc2n1)O[C@@H](C(C)C)C(=O)N3C (single isomer, unassigned) [Compound 32a] |
| 1 to 200 | Cc1nc(N[C@H](C)c2cc(N)cc(C(F)(F)F)c2)c2cc3c(cc2n1)OCCN3CC1CCOC1 (single isomer, unassigned) [Compound 43] |
| 1 to 200 | Cc1nc(NC(C)c2cc(N)cc(C(F)F)c2)c2cc3c(cc2n1)C(C)(C)C(=O)N3C (single isomer, unassigned) [Compound 69, (R/S)-4-((1-(3-amino-5-(difluoromethyl)phenyl)ethyl)amino)-2,6,8,8-tetramethyl-6H-pyrrolo[2,3-g]quinazolin-7(8H)-one] |
| 201 to 500 | Cc1nc(N[C@H](C)c2cccc(C(F)(F)[C@](C)(O)CO)c2F)c2cc3c(cc2n1)C(C)(C)C(=O)N3C (single isomer, unassigned) [Compound 76b] |
| 201 to 500 | Cc1nc(N[C@H](C)c2cccc(C(F)(F)C(C)(C)O)c2F)c2cc3c(cc2n1)C(C)(F)C(=O)N3C (single isomer, unassigned) [Compound 116a] |
| 1 to 200 | Cc1nc(N[C@H](C)c2cccc(C(F)(F)C(C)(C)O)c2F)c2cc3c(cc2n1)[C@](C)(F)C(=O)N3C (single isomer, unassigned) [Compound 116b] |
| 1 to 200 | COCCC1(C)C(=O)N(C)c2cc3c(N[C@H](C)c4cccc(C(F)(F)C(C)(C)O)c4F)nc(C)nc3cc21 (single isomer, unassigned) [Compound 123b] |
| 201 to 500 | COC1(C(F)(F)F)C(=O)N(C)c2cc3c(N[C@H](C)c4cccc(C(F)(F)C(C)(C)O)c4F)nc(C)nc3cc21 (single isomer, unassigned) [Compound 125a] |
| 1 to 200 | CO[C@]1(C(F)(F)F)C(=O)N(C)c2cc3c(N[C@H](C)c4cccc(C(F)(F)C(C)(C)O)c4F)nc(C)nc3cc21 (single isomer, unassigned) [Compound 125b] |
| 1 to 200 | CCC1(OC)C(=O)N(C)c2cc3c(N[C@H](C)c4cccc(C(F)(F)C(C)(C)O)c4F)nc(C)nc3cc21 (single isomer, unassigned) [Compound 126a] |
| 201 to 500 | CC[C@@]1(OC)C(=O)N(C)c2cc3c(N[C@H](C)c4cccc(C(F)(F)C(C)(C)O)c4F)nc(C)nc3cc21 (single isomer, unassigned) [Compound 126b] |
| 201 to 500 | COCC(C)(O)C(F)(F)c1cccc([C@@H](C)Nc2nc(C)nc3cc4c(cc23)N(C)C(=O)C4(C)C)c1F (single isomer, unassigned) [Compound 127a] |
| 1 to 200 | COCCC1(OC)C(=O)N(C)c2cc3c(N[C@H](C)c4cccc(C(F)(F)C(C)(C)O)c4F)nc(C)nc3cc21 (single isomer, unassigned) [Compound 132a] |
| 201 to 500 | Cc1nc(NC(C)c2cccc(C(F)(F)F)c2F)c2cc3c(cc2n1)C(C)(C)C(=O)N3C (single isomer, unassigned) [Compound 134, (R/S)-4-((1-(2-fluoro-3-(trifluoromethyl)phenyl)ethyl)amino)-2,6,8,8-tetramethyl-6,8-dihydro-7H-pyrrolo[2,3-g]quinazolin-7-one] |
| 201 to 500 | Cc1nc(N[C@H](C)c2cccc(C(F)(F)C(C)(C)O)c2F)c2cc3c(cc2n1)OCC(=O)N3C [Compound 3, (R)-4-((1-(3-(1,1-difluoro-2-hydroxy-2-methylpropyl)-2-fluorophenyl)ethyl)amino)-2,6-dimethyl-6H-[1,4]oxazino[3,2-g]quinazolin-7(8H)-one] |
| 1 to 200 | CCc1nc(N[C@H](C)c2cc(N)cc(C(F)(F)F)c2)c2cc3c(cc2n1)OCC(=O)N3C [Compound 14, (R)-4-((1-(3-amino-5-(trifluoromethyl)phenyl)ethyl)amino)-2-ethyl-6-methyl-6H-[1,4]oxazino[3,2-g]quinazolin-7(8H)-one] |
| 201 to 500 | Cc1nc(N[C@H](C)c2cccc(C(F)(F)C(C)(C)O)c2F)c2cc3c(cc2n1)OC(C)(C)C(N1CCOCC1)=N3 [Compound 26, (R)-1,1-Difluoro-1-(2-fluoro-3-(1-((2,8,8-trimethyl-7-morpholino-8H [1,4]oxazino[3,2-g]quinazolin-4-yl)amino)ethyl)phenyl)-2-methylpropan-2-ol] |
| 1 to 200 | Cc1nc(N[C@H](C)c2cccc(C(F)(F)C(C)(C)O)c2F)c2cc3c(cc2n1)OC(C)(C)C(=O)N3C [Compound 33, (R)-4-((1-(3-(1,1-Difluoro-2-hydroxy-2-methylpropyl)-2-fluorophenyl)ethyl)amino)-2,6,8,8-tetramethyl-6H-[1,4]oxazino[3,2-g]quinazolin-7(8H)-one] |
| 201 to 500 | Cc1nc(N[C@H](C)c2cccc(C(F)(F)C(C)(C)O)c2F)c2cc3c(cc2n1)n(C)c(=O)c(=O)n3C [Compound 40, (R)-4-((1-(3-(1,1-Difluoro-2-hydroxy-2-methylpropyl)-2-fluorophenyl)ethyl)amino)-2,6,9-trimethyl-6,9-dihydropyrazino[2,3-g]quinazoline-7,8-dione] |
| 201 to 500 | CCN1C(=O)C(C)(C)Oc2cc3nc(C)nc(N[C@H](C)c4cccc(C(F)(F)C(C)(C)O)c4F)c3cc21 [Compound 41, (R)-4-((1-(3-(1,1-difluoro-2-hydroxy-2-methylpropyl)-2-fluorophenyl)ethyl)amino)-6-ethyl-2,8,8-trimethyl-6H-[1,4]oxazino[3,2-g]quinazolin-7(8H)-one] |
| 1 to 200 | Cc1nc(N[C@H](C)c2cccc(C(F)(F)C(C)(C)O)c2)c2cc3c(cc2n1)OC(C)(C)C(=O)N3C [Compound 57, (R)-4-((1-(3-(1,1-difluoro-2-hydroxy-2-methylpropyl)phenyl)ethyl)amino)-2,6,8,8-tetramethyl-6H-[1,4]oxazino[3,2-g]quinazolin-7(8H)-one] |
| 1 to 200 | Cc1nc(N[C@H](C)c2cccc(C(F)(F)C(C)(C)O)c2F)c2cc3c(cc2n1)C(C)(C)C(=O)N3C1CC1 [Compound 65, (R)-6-cyclopropyl-4-((1-(3-(1,1-difluoro-2-hydroxy-2-methylpropyl)-2-fluorophenyl)ethyl)amino)-2,8,8-trimethyl-6,8-dihydro-7H-pyrrolo[2,3-g]quinazolin-7-one] |

| SMILES | IC50 [nM] |
| --- | --- |
| COC1(C)C(=O)N(C)c2cc3nc(C)nc(N[C@H](C)c4cccc(C(F)(F)C(C)(C)O)c4F)c3cc21 (single isomer, unassigned) [Compound 96b] | 1 to 200 |
